Reference: patent US20230233567A1, “BELVARAFENIB FOR USE IN CANCER TREATMENT” (Hanmi Pharm. Co., Ltd., priority 2020, published 2023)
Where two headings read alike, the source gives them in different places.

Assay: Phase I study plasma pharmacokinetics
Format: in vivo, human
Conditions: for AUC(0-inf) / AUC(0-t) / Cmax / AUC / Vd/F / Tmax: human, plasma, oral; for AUC: read-out: AUC24; for Vd/F: read-out: Vz/F; for Tmax: median, read-out: Tmax
Text: The PK parameters of belvarafenib were estimated in 48 patients in the dose-escalation phase and 35 patients in the dose-expansion phase. In the tables: “AUClast” refers to the area under the plasma concentration-time curve from zero time until the last measurable concentration; “AUC0-∞” refers to area under the plasma concentration-time curve from zero time to infinity; “AUC24” refers to the area under the curve from T0 to T24; “Cmax” refers to the maximal concentration; “Tmax” refers to the time to reach Cmax; “T1/2β” refers to the terminal elimination half-life; “QD” refers to once a day; and “BID” refers to twice a day. […] Mean and coefficient of variation are presented except for Tmax where median and range are presented. One patient in the 200 QD dosing regimen who took concomitant rifampin was removed from the analysis because the AUC and Cmax of the patient were much lower than those of the others in the same cohort, which, without being bound to any particular theory, could have resulted from the drug-metabolizing enzyme induction by rifampin through which belvarafenib is biotransformed.

[1] = Day 1 first dose, 50 mg/day QD, n=3, mean
[2] = Day 1 first dose, 100 mg/day QD, n=3, mean
[3] = Day 1 first dose, 200 mg/day QD, n=6, mean
[4] = Day 1 first dose, 200 mg/day QD, n=7, mean
[5] = Day 1 first dose, 400 mg/day BID, n=11, mean
[6] = Day 1 first dose, 600 mg/day BID, n=7, mean
[7] = Day 1 first dose, 600 mg/day QD, n=6, mean
[8] = Day 1 first dose, 900 mg/day BID, n=8, mean
[9] = Day 1 first dose, 1300 mg/day BID, n=6, mean
[10] = Day 1 first dose, 1600 mg/day BID, n=6, mean
[11] = Multiple administrations Day 17, 50 mg/day QD, n=2, mean
[12] = Multiple administrations Day 22, 100 mg/day QD, n=3, mean
[13] = Multiple administrations Day 22, 200 mg/day QD, n=5, mean
[14] = Multiple administrations Day 22, 200 mg/day QD, n=6, mean
[15] = Multiple administrations Day 22, 400 mg/day BID, n=8, mean
[16] = 50 mg/day, Multiple administrations Day 17, 50 mg/day QD, n=2, mean
[17] = 100 mg/day, Multiple administrations Day 22, 100 mg/day QD, n=3, mean
[18] = 200 mg/day, Multiple administrations Day 22, 200 mg/day QD, n=5, mean
[19] = 200 mg/day, Multiple administrations Day 22, 200 mg/day QD, n=6, mean
[20] = 400 mg/day, Multiple administrations Day 22, 400 mg/day BID, n=8, mean
[21] = 600 mg/day, Multiple administrations Day 22, 600 mg/day BID, n=6, mean

`Cc1ccc2c(Nc3cccc(Cl)c3F)nccc2c1NC(=O)c1csc2c(N)ncnc12` [Belvarafenib] showed a CL/F [1] of 2.5 L/h, a T1/2β [1] of 51.6 h and a CL/F [2] of 2.5 L/h. For the same compound, the T1/2β [2] was 55.3 h, the CL/F [3] was 7.3 L/h and the T1/2β [3] was 57.7 h. The CL/F [4] was 15.4 L/h, the T1/2β [4] was 50.5 h and the CL/F [5] was 7.8 L/h. The T1/2β [5] was 70.7 h, the CL/F [6] was 7.7 L/h and the T1/2β [6] was 86.6 h. The CL/F [7] was 9.9 L/h, the T1/2β [7] was 58.9 h and the CL/F [8] was 5.7 L/h. It also gave a T1/2β [8] of 84.3 h, a CL/F [9] of 9.0 L/h and a T1/2β [9] of 77.4 h. It also gave a CL/F [10] of 14.5 L/h, a T1/2β [10] of 215.8 h and a CL/F [11] of 0.6 L/h. The T1/2β [11] was 70.7 h, the CL/F [12] was 0.9 L/h and the T1/2β [12] was 106.1 h. The CL/F [13] was 1.3 L/h, the T1/2β [13] was 69.8 h and the CL/F [14] was 2.4 L/h. The T1/2β [14] was 65.1 h, the CL/F [15] was 3.3 L/h and the T1/2β [15] was 41.2 h. For the same compound, the T1/2β (Multiple administrations Day 22, 600 mg/day BID, n=6, mean) was 52.3 h, the CL/F (Multiple administrations Day 22, 600 mg/day BID, n=6, mean (CV)) was 2.2 (63.3) L/h and the T1/2β (Multiple administrations Day 22, 600 mg/day QD, n=6, mean) was 97.7 h. For the same compound, the CL/F (Multiple administrations Day 22, 600 mg/day QD, n=6, mean (CV)) was 3.4 (81.8) L/h, the T1/2β (Multiple administrations Day 22, 900 mg/day BID, n=7, mean) was 32.3 h and the CL/F (Multiple administrations Day 22, 900 mg/day BID, n=7, mean (CV)) was 3.8 (50.7) L/h. The T1/2β (Multiple administrations Day 22, 1300 mg/day BID, n=6, mean) was 66.4 h, the CL/F (Multiple administrations Day 22, 1300 mg/day BID, n=6, mean (CV)) was 2.7 (54.7) L/h and the T1/2β (Multiple administrations Day 22, 1600 mg/day BID, n=4, mean) was 42.7 h. For the same compound, the CL/F (Multiple administrations Day 22, 1600 mg/day BID, n=4, mean (CV)) was 14.8 (61.2) L/h, the “mean plasma concentration versus dose” value (from 50 mg QD to 650 mg BID) was “linearity in a dose-proportional manner” and the AUC(0-inf) [16] was 88800 ng·h/mL. For the same compound, the AUC(0-t) [16] was 18900 ng·h/mL, the Cmax [16] was 1120 ng/mL and the AUC [16] was 18900 ng·h/mL. The Vd/F [16] was 57.6 L, the Tmax (50 mg/day, Multiple administrations Day 17, 50 mg/day QD, n=2) was 3 h and the AUC(0-inf) [17] was 349000 ng·h/mL. It also gave an AUC(0-t) [17] of 41900 ng·h/mL, a Cmax [17] of 1990 ng/mL and an AUC [17] of 42000 ng·h/mL. The Vd/F [17] was 62.7 L, the Tmax (100 mg/day, Multiple administrations Day 22, 100 mg/day QD, n=3) was 5 h and the AUC(0-inf) [18] was 239000 ng·h/mL. For the same compound, the AUC(0-t) [18] was 48200 ng·h/mL, the Cmax [18] was 2520 ng/mL and the AUC [18] was 48200 ng·h/mL. It also gave a Vd/F [18] of 116 L, a Tmax (200 mg/day, Multiple administrations Day 22, 200 mg/day QD, n=5) of 3.2 h and an AUC(0-inf) [19] of 203000 ng·h/mL. For the same compound, the AUC(0-t) [19] was 41600 ng·h/mL, the Cmax [19] was 2210 ng/mL and the AUC [19] was 41700 ng·h/mL. For the same compound, the Vd/F [19] was 178 L, the Tmax (200 mg/day, Multiple administrations Day 22, 200 mg/day QD, n=6) was 3.1 h and the AUC(0-inf) [20] was 207000 ng·h/mL. For the same compound, the AUC(0-t) [20] was 67500 ng·h/mL, the Cmax [20] was 3210 ng/mL and the AUC [20] was 68900 ng·h/mL. It also gave a Vd/F [20] of 157 L, a Tmax (400 mg/day, Multiple administrations Day 22, 400 mg/day BID, n=8) of 13.1 h and an AUC(0-inf) [21] of 507000 ng·h/mL. For the same compound, the AUC(0-t) [21] was 116000 ng·h/mL, the Cmax [21] was 5700 ng/mL and the AUC [21] was 120000 ng·h/mL. It also gave a Vd/F [21] of 122 L and a Tmax (600 mg/day, Multiple administrations Day 22, 600 mg/day BID, n=6) of 3.4 h.
